# Biological target: T1, Sclerostin (Homo sapiens, UniProt Q9BQB4)
# T1 sequence (Q9BQB4 whole entry): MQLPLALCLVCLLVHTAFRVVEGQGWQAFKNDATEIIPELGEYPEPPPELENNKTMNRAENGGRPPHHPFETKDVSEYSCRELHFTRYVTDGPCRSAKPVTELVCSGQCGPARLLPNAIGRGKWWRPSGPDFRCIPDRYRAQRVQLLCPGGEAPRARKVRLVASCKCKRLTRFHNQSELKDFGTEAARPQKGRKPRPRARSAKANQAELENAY
# Assay: Inhibition of sclerostin in human embryonic cells assessed as restoration of Wnt signaling by luciferase reporter gene assay
# Format: cell-based
compound,measurement,value
COc1cc2c(cc1OC)-c1c(OC)c(OC)c(C=O)c3c1[C@H](C2)N(C)CC3,IC50,1500 nM
